The test system of the test is L1210 leukemia ip in BDF1 mice, survival T/C. The test is described as follows: NCI In Vivo Anticancer Drug Screen. Data for tumor model L1210 Leukemia (intraperitoneal) in B6D2F1 (BDF1) mice. To be noted: endpoint: mean survival time, higher = longer survival. In short, it runs like this: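 Tumor was transplanted into mice, which were then dosed with test compound or vehicle alone. Survival was recorded for each group, and the treated figure was expressed relative to the control figure.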

Setting [1] is: dose: 100.0 mg/kg/injection, schedule: Q01DX001 (ip), vehicle: saline.
The mark [2] stands for this setting: dose: 200.0 mg/kg/injection, schedule: Q01DX001 (ip), vehicle: saline.
Setting [3] is: dose: 400.0 mg/kg/injection, schedule: Q01DX001 (ip), vehicle: saline.

Structures are written as SMILES. Where “and” joins values, the source holds several entries; their conditions need not be identical. Identical values can stand only once. Toxic doses and inconclusive results are not listed.

Turning to `COc1ccc(NC(=O)Oc2ccc(Br)cc2Br)c(Cl)c1`, the T/C (dose: 50.0 mg/kg/injection, schedule: Q01DX009 (ip), vehicle: saline + alcohol) was 87 % of control; the T/C (dose: 100.0 mg/kg/injection, schedule: Q01DX009 (ip), vehicle: saline + alcohol) is 87 % of control; the T/C (dose: 200.0 mg/kg/injection, schedule: Q01DX009 (ip), vehicle: saline + alcohol) is 97 % of control.

Regarding `O=C(Nc1ccc(C2=NCCN2)cc1)c1ccc(C(=O)Nc2ccc(C3=NCCN3)cc2)c([N+](=O)[O-])c1`, the T/C was 103 % of control (dose: 1.0 mg/kg/injection, schedule: Q#A X Z (ip), vehicle: saline); 112 % of control (dose: 2.0 mg/kg/injection, schedule: Q01DX Z (ip), vehicle: saline); 97 % of control (dose: 2.5 mg/kg/injection, schedule: Q## X000 (iv), vehicle: other); 163 % of control (dose: 3.6 mg/kg/injection, schedule: Q01DX Z (ip), vehicle: methylcellulose (MC)); 116 % of control (dose: 4.0 mg/kg/injection, schedule: Q01DX Z (ip), vehicle: saline); 184 % of control (dose: 4.0 mg/kg/injection, schedule: Q#A X Z (ip), vehicle: saline). Further, the T/C is, setting by setting: (dose: 5.0 mg/kg/injection, schedule: Q## X000 (iv), vehicle: other) 96 % of control; (dose: 5.4 mg/kg/injection, schedule: Q01DX Z (ip), vehicle: methylcellulose (MC)) 195 % of control; (dose: 6.0 mg/kg/injection, schedule: Q01DX004 (im), vehicle: olive oil, sesame oil, peanut oil) 97 % of control; (dose: 6.0 mg/kg/injection, schedule: Q03DX Z (ip), vehicle: saline) 115 % of control; (dose: 8.0 mg/kg/injection, schedule: Q01DX004 (im), vehicle: olive oil, sesame oil, peanut oil) 98 % of control; (dose: 8.0 mg/kg/injection, schedule: Q01DX Z (ip), vehicle: methylcellulose (MC)) 246 % of control. In addition, the T/C by setting is: (dose: 8.0 mg/kg/injection, schedule: Q01DX Z (ip), vehicle: saline) 204 % of control; (dose: 10.0 mg/kg/injection, schedule: Q## X000 (iv), vehicle: other) 120 % of control; (dose: 12.0 mg/kg/injection, schedule: Q01DX004 (im), vehicle: olive oil, sesame oil, peanut oil) 101 % of control; (dose: 12.0 mg/kg/injection, schedule: Q01DX Z (ip), vehicle: methylcellulose (MC)) 204 % of control; (dose: 12.0 mg/kg/injection, schedule: Q03DX Z (ip), vehicle: saline) 123 % of control; (dose: 16.0 mg/kg/injection, schedule: Q01DX009 (ip), vehicle: saline) 188 % of control and 198 % of control. For the same compound, the T/C was 104 % of control (dose: 18.0 mg/kg/injection, schedule: Q01DX004 (im), vehicle: olive oil, sesame oil, peanut oil); 188 % of control (dose: 24.0 mg/kg/injection, schedule: Q03DX Z (ip), vehicle: saline); 113 % of control (dose: 28.0 mg/kg/injection, schedule: Q07DX Z (ip), vehicle: saline); 100 % of control and 103 % of control (dose: 32.0 mg/kg/injection, schedule: Q01DX009 (ip), vehicle: saline); 86 % of control (dose: 32.0 mg/kg/injection, schedule: Q01DX Z (ip), vehicle: saline); 172 % of control (dose: 48.0 mg/kg/injection, schedule: Q03DX Z (ip), vehicle: saline). The T/C (dose: 64.0 mg/kg/injection, schedule: Q01DX Z (sc), vehicle: steriod suspending solution) was 159 % of control; the T/C (dose: 96.0 mg/kg/injection, schedule: Q03DX Z (ip), vehicle: saline) is 100 % of control; the T/C (dose: 125.0 mg/kg/injection, schedule: Q01DX Z (sc), vehicle: steriod suspending solution) was 122 % of control; the T/C (dose: 240.0 mg/kg/injection, schedule: Q01DX Z (oral), vehicle: saline) is 101 % of control.

With `C/C=C/CCCCC`, the T/C (dose: 50.0 mg/kg/injection, schedule: Q01DX009 (ip), vehicle: saline with Tween-80) was 102 % of control; the T/C (dose: 100.0 mg/kg/injection, schedule: Q01DX009 (ip), vehicle: saline with Tween-80) is 118 % of control; the T/C (dose: 200.0 mg/kg/injection, schedule: Q01DX009 (ip), vehicle: saline with Tween-80) was 94 % of control.

For the compound `Nc1cnccc1NCC(O)c1ccccc1` (centres undefined), the T/C is 95 % of control under setting [1], 101 % of control under setting [2] and 86 % of control under setting [3].

On to `CCCCNS(=O)(=O)c1ccc(OC)c(NC(=O)c2ccc(C(=O)Nc3cc(S(=O)(=O)NCCCC)ccc3OC)cc2)c1`, for which the T/C under setting [1] is 105 % of control, the T/C under setting [2] is 94 % of control and the T/C under setting [3] is 94 % of control.

In the case of `CC(=O)OCC1C(C)CCC1C(C)(C)OC(C)=O` (centres undefined), the T/C (dose: 25.0 mg/kg/injection, schedule: Q04DX003 (ip), vehicle: saline) is 95 % of control; the T/C (dose: 50.0 mg/kg/injection, schedule: Q04DX003 (ip), vehicle: saline) was 109 % of control; the T/C under setting [1] is 107 % of control; the T/C (dose: 100.0 mg/kg/injection, schedule: Q04DX003 (ip), vehicle: saline) was 98 % of control.

The values above are taken from PubChem BioAssay AID248 (DTP/NCI, 2004).
